{"source": "the supplement of paper PMC10307832", "test_in_all_cases": "relative viability (nuclei count vs DMSO), 5 days (fraction); higher = more cells survive", "key": {"YM155 + OSI-027": {"compound": "COCC[n+]1c2c(n(Cc3cnccn3)c1C)C(=O)c1ccccc1C2=O [YM155] + COc1cccc2cc(-c3nc([C@H]4CC[C@H](C(=O)O)CC4)n4ncnc(N)c34)[nH]c12 [OSI-027] (partner 0.5 µM)", "method_in_brief": "(§1)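 Relative viability is defined as nuclei in treated wells over nuclei in vehicle wells. Duplicate plates were run and medians reported. Lung cancer cell lines in 1536-well plates were dosed by pin tool one day after seeding, with one drug or with a fixed anchor-drug dose plus five library-drug doses (not always all listed) in √10 steps, and nuclei were counted after 5 days.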"}, "[1]": {"compound": "CC(C)(C)c1cc(NC(=O)Nc2ccc(-c3cn4c(n3)sc3cc(OCCN5CCOCC5)ccc34)cc2)no1 [Quizartinib] + CC(=O)c1c(C)c2cnc(Nc3ccc(N4CCNCC4)cn3)nc2n(C2CCCC2)c1=O [Palbociclib] (partner 0.5 µM)", "method_in_brief": "as §1"}, "Quizartinib + Decitabine": {"compound": "CC(C)(C)c1cc(NC(=O)Nc2ccc(-c3cn4c(n3)sc3cc(OCCN5CCOCC5)ccc34)cc2)no1 [Quizartinib] + Nc1ncn([C@H]2C[C@H](O)[C@@H](CO)O2)c(=O)n1 [Decitabine] (partner 2 µM)", "method_in_brief": "as §1"}, "YM155 + AZD7762": {"compound": "COCC[n+]1c2c(n(Cc3cnccn3)c1C)C(=O)c1ccccc1C2=O [YM155] + NC(=O)Nc1cc(-c2cccc(F)c2)sc1C(=O)N[C@H]1CCCNC1 [AZD7762] (partner 0.2 µM)", "method_in_brief": "as §1"}, "YM155 + Vorinostat": {"compound": "COCC[n+]1c2c(n(Cc3cnccn3)c1C)C(=O)c1ccccc1C2=O [YM155] + O=C(CCCCCCC(=O)Nc1ccccc1)NO [Vorinostat] (partner 1 µM)", "method_in_brief": "as §1"}, "YM155 + Pemetrexed": {"compound": "COCC[n+]1c2c(n(Cc3cnccn3)c1C)C(=O)c1ccccc1C2=O [YM155] + Nc1nc2[nH]cc(CCc3ccc(C(=O)N[C@@H](CCC(=O)O)C(=O)O)cc3)c2c(=O)[nH]1 [Pemetrexed] (partner 0.2 µM)", "method_in_brief": "as §1"}}}
{"cell line": "NCI-H1648", "values": [{"measurement": "relative viability", "setting": "YM155 + OSI-027; first compound 0.002 µM", "result": 0.283}, {"measurement": "relative viability", "setting": "YM155 + OSI-027; first compound 0.006325 µM", "result": 0.271}, {"measurement": "relative viability", "setting": "YM155 + OSI-027; first compound 0.02 µM", "result": 0.259}, {"measurement": "relative viability", "setting": "YM155 + OSI-027; first compound 0.06325 µM", "result": 0.231}, {"measurement": "relative viability", "setting": "[1]; first compound 0.003162 µM", "result": 0.118}, {"measurement": "relative viability", "setting": "[1]; first compound 0.03162 µM", "result": 0.277}, {"measurement": "relative viability", "setting": "[1]; first compound 0.1 µM", "result": 0.239}, {"measurement": "relative viability", "setting": "Quizartinib + Decitabine; first compound 0.003162 µM", "result": 0.461}, {"measurement": "relative viability", "setting": "Quizartinib + Decitabine; first compound 0.03162 µM", "result": 0.548}, {"measurement": "relative viability", "setting": "Quizartinib + Decitabine; first compound 0.1 µM", "result": 0.745}, {"measurement": "relative viability", "setting": "YM155 + AZD7762; first compound 0.006325 µM", "result": 0.689}, {"measurement": "relative viability", "setting": "YM155 + AZD7762; first compound 0.02 µM", "result": 0.557}, {"measurement": "relative viability", "setting": "YM155 + AZD7762; first compound 0.06325 µM", "result": 0.634}, {"measurement": "relative viability", "setting": "YM155 + Vorinostat; first compound 0.006325 µM", "result": 0.386}, {"measurement": "relative viability", "setting": "YM155 + Vorinostat; first compound 0.02 µM", "result": 0.565}, {"measurement": "relative viability", "setting": "YM155 + Vorinostat; first compound 0.06325 µM", "result": 0.301}, {"measurement": "relative viability", "setting": "YM155 + Pemetrexed; first compound 0.006325 µM", "result": 0.97}, {"measurement": "relative viability", "setting": "YM155 + Pemetrexed; first compound 0.02 µM", "result": 0.702}, {"measurement": "relative viability", "setting": "YM155 + Pemetrexed; first compound 0.06325 µM", "result": 0.804}]}
